Here are results for 15 compounds from US5795907A, “Gastin and CCK receptor ligands” (James Black Foundation Limited, priority 1994, dated 1998).

One test deals with T1, gastrin (Rattus norvegicus, UniProt P30553).
T1 construct: The stomach was lowered into a jacketed organ bath containing 40 ml of buffered solution; from tissue; host or cells: isolated perfused whole stomach of immature rats (ca. 21 days old)
T1 sequence (P30553 1-452): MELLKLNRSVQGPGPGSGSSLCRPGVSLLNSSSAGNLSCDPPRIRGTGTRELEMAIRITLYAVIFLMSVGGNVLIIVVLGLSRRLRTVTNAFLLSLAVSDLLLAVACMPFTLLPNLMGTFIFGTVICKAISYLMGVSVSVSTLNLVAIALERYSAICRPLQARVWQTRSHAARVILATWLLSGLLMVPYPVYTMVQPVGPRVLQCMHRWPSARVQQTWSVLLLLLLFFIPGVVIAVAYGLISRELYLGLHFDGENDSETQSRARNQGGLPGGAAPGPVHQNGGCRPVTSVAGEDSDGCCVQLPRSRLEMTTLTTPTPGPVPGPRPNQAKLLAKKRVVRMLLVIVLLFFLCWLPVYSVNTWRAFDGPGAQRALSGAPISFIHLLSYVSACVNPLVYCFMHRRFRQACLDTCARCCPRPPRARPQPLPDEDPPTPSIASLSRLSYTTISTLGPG
Put plainly: gastrin antagonist activity in an immature rat stomach assay (pentagastrin-stimulated acid secretion). The settings on record: cumulative pentagastrin dose-response curves after 60 min with drug; for Kb: read-out: Gastrin pKB (converted). The method, boiled down:
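Isolated lumen-perfused immature rat stomach (33-50 g, ca. 21 days) in 37° organ bath with 3×10^-8 M 5-methylfurmethide; acid secretion read by pH electrode in perfusate. Compound added to serosal bath after 120 min stabilisation; cumulative pentagastrin dose-response curves begun 60 min later and analysed by the Black et al. method.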

In a further test the target is T2, CCKB receptor (Mus musculus, UniProt P56481).
T2 construct: The cortex was dissected, weighed and homogenised in 40ml ice-cold buffer; tissue Charles River (supplier of the CD1 mice); host or cells: cerebral cortex membranes of male CD1 mice
T2 sequence (P56481 1-453): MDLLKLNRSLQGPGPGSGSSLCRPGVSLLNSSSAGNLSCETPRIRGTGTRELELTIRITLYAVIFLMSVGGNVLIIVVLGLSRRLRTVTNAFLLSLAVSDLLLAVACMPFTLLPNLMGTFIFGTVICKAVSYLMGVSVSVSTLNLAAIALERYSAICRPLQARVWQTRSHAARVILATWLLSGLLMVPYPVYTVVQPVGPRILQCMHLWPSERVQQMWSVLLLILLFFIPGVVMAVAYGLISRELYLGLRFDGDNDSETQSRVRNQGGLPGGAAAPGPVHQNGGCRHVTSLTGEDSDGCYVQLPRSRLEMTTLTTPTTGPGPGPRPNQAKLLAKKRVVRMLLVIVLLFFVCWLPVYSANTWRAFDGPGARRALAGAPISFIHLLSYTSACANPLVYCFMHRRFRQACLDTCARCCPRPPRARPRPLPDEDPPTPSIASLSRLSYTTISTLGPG
Put plainly: CCKB receptor radioligand binding assay in mouse cortical membranes ([125I]-CCK8S). Particulars: [125I]-CCK8S 200 pM, 150 min at 21±3°; for Ki: read-out: CCKB pKi (converted). A digest of the protocol:
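This was competition binding with tracer [125I]-CCK8S (200 pM solution added), run for 150 min at 21±3° on male CD1 mouse cortex membranes in pH 7.2 HEPES buffer with bacitracin. Filtration then gamma counting gave bound radioactivity. L-365,260 set the non-specific level.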

The next test deals with T3, CCKA (Cavia porcellus, UniProt Q63931).
T3 construct: The pancreatata were homogenised in 40 ml ice-cold HEPES buffer using a polytron; from tissue; host or cells: pancreas membranes of male Dunkin Hartley guinea-pigs
T3 sequence (Q63931 1-430): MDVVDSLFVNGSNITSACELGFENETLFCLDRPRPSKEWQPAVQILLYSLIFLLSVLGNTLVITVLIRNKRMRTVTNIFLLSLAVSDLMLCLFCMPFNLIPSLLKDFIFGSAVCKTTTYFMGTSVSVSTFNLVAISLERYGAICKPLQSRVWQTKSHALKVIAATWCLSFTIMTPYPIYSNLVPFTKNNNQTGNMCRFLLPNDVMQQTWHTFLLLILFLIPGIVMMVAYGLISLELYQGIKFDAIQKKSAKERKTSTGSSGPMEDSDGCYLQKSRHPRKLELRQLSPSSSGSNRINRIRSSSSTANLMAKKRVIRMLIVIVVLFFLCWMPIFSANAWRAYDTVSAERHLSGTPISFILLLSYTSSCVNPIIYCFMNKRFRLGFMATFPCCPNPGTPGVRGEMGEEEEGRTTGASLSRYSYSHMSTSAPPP
As to the kind of experiment: CCKA radioligand binding assay in guinea-pig pancreas membranes ([125I]-CCK8(S)). Particulars: PD134,308 present, 150 minutes at 21±3°; for Ki: read-out: CCKA pKi (converted). The method, boiled down: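 Competition for [125I]-CCK8(S) (added as […] solution) ran for 150 min at 21±3° in HEPES pH 7.2. Membranes came from male guinea-pig pancreas at 1 mg/ml original wet weight, with 0.375 μM PD134,308 in the suspension. Filter-bound counts were gamma-counted; 100 nM L-364,718 (added solution) defined non-specific binding.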

In the case of `O=C(O)c1cc(NC(=O)[C@H](Cc2ccccc2)NC(=O)c2cc3ccccc3cc2C(=O)NCC23CC4CC(CC(C4)C2)C3)cc(C(=O)O)c1` [Example 15, 2-(1S-(3,5-dicarboxyphenylaminocarbonyl)-2-phenylethylaminocarbonyl)-3-(1-adamantanemethylaminocarbonyl)-naphthalene], at gastrin, the “Gastrin pKB” value stood at 8.2. The “CCKB pKi” value at CCKB receptor turned out to be 7.9. Further, the “CCKA pKi” value on CCKA was found to be 6.1.

For the compound “5-(1S-(3,5-dicarboxyphenylaminocarbonyl)-2-phenylethylaminocarbonyl)-6-(cycloheptanemethylaminocarbonyl)-indole and regioisomer with substituents at positions 5 and 6 reversed [Example 42]”, at gastrin, the “Gastrin pKB” value came to 9.3. The “CCKB pKi” value on CCKB receptor is 7.8. The “CCKA pKi” value on CCKA was determined as 5.5.

`O=C(NCC12CC3CC(CC(C3)C1)C2)c1cc2ccccc2cc1C(=O)N1CCC[C@H]1C(=O)O` [Example 4, 2-(2S-carboxypyrrolidino-carbonyl)-3-(1-adamantanemethylaminocarbonyl)-naphthalene]: the Kb on gastrin is 501 nM. For the same compound, the values for the Ki at CCKB receptor and at CCKA were 3160 nM and 3980 nM, respectively.

With `O=C(O)CNC(=O)[C@H]1CCCN1C(=O)c1cc2[nH]cnc2cc1C(=O)NCC12CC3CC(CC(C3)C1)C2` [Example 76, 5-(2R-carboxymethylaminocarbonylpyrrolidino-carbonyl)-6-(1-adamantanemethylaminocarbonyl)-benzimidazole], at gastrin, the Kb was 126 nM. The results for the Ki at CCKB receptor and on CCKA were 631 nM and above 10000 nM, respectively.

Consider `O=C(NCC12CC3CC(CC(C3)C1)C2)c1cc2cc[nH]c2cc1C(=O)N[C@@H](Cc1ccccc1)C(=O)Nc1cc(-c2nn[nH]n2)cc(-c2nn[nH]n2)c1` [Example 105, 6-(1S-(3,5-ditetrazolylphenylaminocarbonyl)-2-phenylethylaminocarbonyl)-5-(1-adamantanemethylaminocarbonyl)-indole], for which the Kb at gastrin is 3.16 nM. The Ki at CCKB receptor was 5.01 nM; at CCKA, 158 nM.

For the compound `Cn1cnc2cc(C(=O)N[C@@H](Cc3ccccc3)C(=O)Nc3cc(C(=O)O)cc(C(=O)O)c3)c(C(=O)NCC34CC5CC(CC(C5)C3)C4)cc21` [Example 74, N-methyl-5-(1S-(3,5-dicarboxyphenylaminocarbonyl)-2-phenylethylaminocarbonyl)-6-(1-adamantanemethylaminocarbonyl)-benzimidazole], the “Gastrin pKB” value on gastrin worked out at 9.0. Further, on CCKB receptor, the “CCKB pKi” value turned out to be 7.6. Moreover, the “CCKA pKi” value at CCKA is given as 5.3.

“5-(1S-(3,5-dicarboxyphenylaminocarbonyl)-2-phenylethylaminocarbonyl)-6-(1-adamantanemethyl-N-methylaminocarbonyl)-indole and regioisomer with substituents at positions 5 and 6 reversed [Example 41]”: the “Gastrin pKB” value on gastrin is reported as 7.8. For the same compound, the “CCKB pKi” value on CCKB receptor came out at 7.8. In addition, the “CCKA pKi” value on CCKA came out at 5.7.

Turning to `CC(=O)Oc1cc(OC(C)=O)c2cc(C(=O)NCC34CC5CC(CC(C5)C3)C4)c(C(=O)N[C@@H](Cc3ccccc3)C(=O)Nc3cc(C(=O)O)cc(C(=O)O)c3)cc2c1` [Example 54, 2-(1S-(3,5-dicarboxyphenylaminocarbonyl)-2-phenylethylaminocarbonyl)-3-(1-adamantanemethylaminocarbonyl)-5,7-diacetoxy-naphthalene], the “Gastrin pKB” value on gastrin was 8.1. Further, on CCKB receptor, the “CCKB pKi” value turned out to be 8.1. For the same compound, at CCKA, the “CCKA pKi” value worked out at 5.9.

With `Cc1ccc(C(=O)O)cc1NC(=O)[C@H](Cc1ccccc1)NC(=O)c1cc2[nH]cnc2cc1C(=O)NCC12CC3CC(CC(C3)C1)C2` [Example 82, 5-(1S-(2-methyl-5-carboxyphenylaminocarbonyl)-2-phenylethylaminocarbonyl)-6-(1-adamantanemethylaminocarbonyl)-benzimidazole], the Kb at gastrin is 126 nM. In addition, the results for the Ki on CCKB receptor and at CCKA were 100 nM and 2000 nM, respectively.

On to `O=C(O)c1cc(NC(=O)[C@H](Cc2ccccc2)NC(=O)c2c(C(=O)NCC34CC5CC(CC(C5)C3)C4)ccc3[nH]cnc23)cc(C(=O)O)c1` [Example 113, 4-(1S-(3,5-dicarboxyphenylaminocarbonyl)-2-phenylethylaminocarbonyl)-5-(1-adamantanemethylaminocarbonyl)-benzimidazole], for which the “Gastrin pKB” value at gastrin is on record as 7.2. The “CCKB pKi” value on CCKB receptor amounted to 6.9. For the same compound, the “CCKA pKi” value at CCKA was 5.2.

As to `O=C(O)c1cc(NC(=O)[C@H](Cc2ccccc2)NC(=O)c2cc3[nH]cnc3cc2C(=O)NCC23CC4CC(CC(C4)C2)C3)ccc1F` [Example 75, 5-(1S-(3-carboxy-4-fluoro-phenylaminocarbonyl)-2-phenylethylaminocarbonyl)-6-(1-adamantanemethylaminocarbonyl)-benzimidazole], the “Gastrin pKB” value at gastrin amounted to 7.7. In addition, the “CCKB pKi” value on CCKB receptor worked out at 7.8. At CCKA, the “CCKA pKi” value stood at 6.1.

As to “5-(1S-(trans 3,4-dicarboxypyrrolidinocarbonyl)-2-phenylethylaminocarbonyl)-6-(1-adamantanemethylaminocarbonyl)-indole and regioisomer with substituents at positions 5 and 6 reversed [Example 50]”, the “Gastrin pKB” value at gastrin was found to be 6.9. Besides, the “CCKB pKi” value on CCKB receptor came out at 6.6. For the same compound, the “CCKA pKi” value on CCKA was 6.1.

In the case of `O=C(NCC12CC3CC(CC(C3)C1)C2)c1cc2nc[nH]c2cc1C(=O)N[C@@H](Cc1ccccc1)C(=O)Nc1cc(C=NO)cc(C=NO)c1` [Example 118, 5-(1S-(3,5-dihydroxyiminomethylenephenylaminocarbonyl)-2-phenylethylaminocarbonyl)-6-(1-adamantanemethylaminocarbonyl)-benzimidazole], the Kb at gastrin was 200 nM. The figures for the Ki on CCKB receptor and on CCKA were 200 nM and 501 nM, respectively.

For the compound `CC(=O)Oc1cc(OC(C)=O)c2cc(C(=O)N[C@@H](Cc3ccccc3)C(=O)Nc3cc(C(=O)O)cc(C(=O)O)c3)c(C(=O)NCC34CC5CC(CC(C5)C3)C4)cc2c1` [Example 53, 3-(1S-(3,5-dicarboxyphenylaminocarbonyl)-2-phenylethylaminocarbonyl)-2-(1-adamantanemethylaminocarbonyl)-5,7-diacetoxy-naphthalene], the “Gastrin pKB” value on gastrin is given as 7.9. For the same compound, the “CCKB pKi” value on CCKB receptor was 8.1. Moreover, the “CCKA pKi” value at CCKA is given as 6.1.

Regarding `C[C@H](NC(=O)c1cc2[nH]cnc2cc1C(=O)NCC1CCCCCC1)C(=O)Nc1cc(C(=O)O)cc(C(=O)O)c1` [Example 72, 5-(1S-(3,5-dicarboxyphenylaminocarbonyl)-ethylaminocarbonyl)-6-(cycloheptanemethylaminocarbonyl)-benzimidazole], at gastrin, the “Gastrin pKB” value is 6.3. Moreover, the “CCKB pKi” value on CCKB receptor is 6.0. Besides, the “CCKA pKi” value on CCKA worked out at 5.6.
